Laboratory results published in the NIST ThermoML archive (doi:10.1021/je500275j).

Experiment: xn = mol fraction of the nth substance listed
Conditions: 100 kPa, Liquid; for viscosity: Falling or rolling sphere viscometry; for mass density: Vibrating tube method

C1CCC(C2CCCCC2)CC1 [1,1'-bicyclohexyl] + CCCCC1CCCCC1
Conditions | mass density [kg/m3] | viscosity [mPa·s]
293.15 K, x1 = 0.1002 | 809.11 | 1.43
293.15 K, x1 = 0.2003 | 818.37 | 1.585
293.15 K, x1 = 0.2997 | 827.41 | 1.757
293.15 K, x1 = 0.4002 | 836.41 | 1.952
293.15 K, x1 = 0.4999 | 845.11 | 2.184
293.15 K, x1 = 0.6011 | 853.76 | 2.45
293.15 K, x1 = 0.7003 | 862.14 | 2.759
293.15 K, x1 = 0.7999 | 870.34 | 3.132
293.15 K, x1 = 0.9008 | 878.53 | 3.563
293.15 K, x1 = 1 | 886.39 | 4.017
298.15 K, x1 = 0.1002 | 805.38 | 1.311
298.15 K, x1 = 0.2003 | 814.66 | 1.449
298.15 K, x1 = 0.2997 | 823.71 | 1.6
298.15 K, x1 = 0.4002 | 832.69 | 1.772
298.15 K, x1 = 0.4999 | 841.44 | 1.975
298.15 K, x1 = 0.6011 | 850.11 | 2.205
298.15 K, x1 = 0.7003 | 858.51 | 2.471
298.15 K, x1 = 0.7999 | 866.72 | 2.797
298.15 K, x1 = 0.9008 | 874.92 | 3.15
298.15 K, x1 = 1 | 882.79 | 3.541
303.15 K, x1 = 0.1002 | 801.64 | 1.209
303.15 K, x1 = 0.2003 | 810.94 | 1.332
303.15 K, x1 = 0.2997 | 820.01 | 1.466
303.15 K, x1 = 0.4002 | 829.01 | 1.619
303.15 K, x1 = 0.4999 | 837.77 | 1.796
303.15 K, x1 = 0.6011 | 846.46 | 1.998
303.15 K, x1 = 0.7003 | 854.87 | 2.231
303.15 K, x1 = 0.7999 | 863.09 | 2.508
303.15 K, x1 = 0.9008 | 871.31 | 2.812
303.15 K, x1 = 1 | 879.19 | 3.145
308.15 K, x1 = 0.1002 | 797.9 | 1.12
308.15 K, x1 = 0.2003 | 807.21 | 1.229
308.15 K, x1 = 0.2997 | 816.31 | 1.349
308.15 K, x1 = 0.4002 | 825.32 | 1.485
308.15 K, x1 = 0.4999 | 834.1 | 1.643
308.15 K, x1 = 0.6011 | 842.81 | 1.821
308.15 K, x1 = 0.7003 | 851.24 | 2.022
308.15 K, x1 = 0.7999 | 859.47 | 2.272
308.15 K, x1 = 0.9008 | 867.7 | 2.53
308.15 K, x1 = 1 | 875.6 | 2.817
313.15 K, x1 = 0.1002 | 794.15 | 1.041
313.15 K, x1 = 0.2003 | 803.48 | 1.139
313.15 K, x1 = 0.2997 | 812.6 | 1.247
313.15 K, x1 = 0.4002 | 821.64 | 1.368
313.15 K, x1 = 0.4999 | 830.43 | 1.508
313.15 K, x1 = 0.6011 | 839.15 | 1.665
313.15 K, x1 = 0.7003 | 847.6 | 1.844
313.15 K, x1 = 0.7999 | 855.85 | 2.061
313.15 K, x1 = 0.9008 | 864.1 | 2.288
313.15 K, x1 = 1 | 872.01 | 2.54
318.15 K, x1 = 0.1002 | 790.39 | 0.971
318.15 K, x1 = 0.2003 | 799.75 | 1.059
318.15 K, x1 = 0.2997 | 808.89 | 1.157
318.15 K, x1 = 0.4002 | 817.94 | 1.265
318.15 K, x1 = 0.4999 | 826.76 | 1.391
318.15 K, x1 = 0.6011 | 835.5 | 1.532
318.15 K, x1 = 0.7003 | 843.97 | 1.689
318.15 K, x1 = 0.7999 | 852.23 | 1.883
318.15 K, x1 = 0.9008 | 860.5 | 2.082
318.15 K, x1 = 1 | 868.43 | 2.302

CCC1CCCCC1 [ethylcyclohexane] + C1CCC(C2CCCCC2)CC1
Conditions | mass density [kg/m3] | viscosity [mPa·s]
293.15 K, x2 = 0 | 788.23 | 0.851
293.15 K, x2 = 0.1001 | 801.13 | 0.996
293.15 K, x2 = 0.2003 | 813.19 | 1.164
293.15 K, x2 = 0.3001 | 824.41 | 1.369
293.15 K, x2 = 0.4002 | 835.03 | 1.621
293.15 K, x2 = 0.498 | 844.69 | 1.848
293.15 K, x2 = 0.5996 | 854.14 | 2.139
293.15 K, x2 = 0.6996 | 862.93 | 2.451
293.15 K, x2 = 0.7983 | 871.02 | 2.874
293.15 K, x2 = 0.901 | 879.05 | 3.379
298.15 K, x2 = 0 | 784.2 | 0.796
298.15 K, x2 = 0.1001 | 797.17 | 0.934
298.15 K, x2 = 0.2003 | 809.29 | 1.079
298.15 K, x2 = 0.3001 | 820.56 | 1.264
298.15 K, x2 = 0.4002 | 831.23 | 1.488
298.15 K, x2 = 0.498 | 840.93 | 1.685
298.15 K, x2 = 0.5996 | 850.42 | 1.94
298.15 K, x2 = 0.6996 | 859.24 | 2.21
298.15 K, x2 = 0.7983 | 867.36 | 2.574
298.15 K, x2 = 0.901 | 875.42 | 3.003
303.15 K, x2 = 0 | 780.16 | 0.748
303.15 K, x2 = 0.1001 | 793.2 | 0.874
303.15 K, x2 = 0.2003 | 805.38 | 1.004
303.15 K, x2 = 0.3001 | 816.7 | 1.173
303.15 K, x2 = 0.4002 | 827.42 | 1.372
303.15 K, x2 = 0.498 | 837.16 | 1.547
303.15 K, x2 = 0.5996 | 846.72 | 1.77
303.15 K, x2 = 0.6996 | 855.55 | 2.005
303.15 K, x2 = 0.7983 | 863.7 | 2.322
303.15 K, x2 = 0.901 | 871.8 | 2.689
308.15 K, x2 = 0 | 776.11 | 0.704
308.15 K, x2 = 0.1001 | 789.22 | 0.82
308.15 K, x2 = 0.2003 | 801.46 | 0.938
308.15 K, x2 = 0.3001 | 812.84 | 1.091
308.15 K, x2 = 0.4002 | 823.6 | 1.258
308.15 K, x2 = 0.498 | 833.39 | 1.428
308.15 K, x2 = 0.5996 | 842.97 | 1.626
308.15 K, x2 = 0.6996 | 851.86 | 1.828
308.15 K, x2 = 0.7983 | 860.05 | 2.106
308.15 K, x2 = 0.901 | 868.18 | 2.425
313.15 K, x2 = 0 | 772.04 | 0.665
313.15 K, x2 = 0.1001 | 785.22 | 0.77
313.15 K, x2 = 0.2003 | 797.53 | 0.879
313.15 K, x2 = 0.3001 | 808.96 | 1.018
313.15 K, x2 = 0.4002 | 819.79 | 1.175
313.15 K, x2 = 0.498 | 829.62 | 1.32
313.15 K, x2 = 0.5996 | 839.25 | 1.492
313.15 K, x2 = 0.6996 | 848.18 | 1.675
313.15 K, x2 = 0.7983 | 856.4 | 1.92
313.15 K, x2 = 0.901 | 864.56 | 2.197
318.15 K, x2 = 0 | 767.96 | 0.629
318.15 K, x2 = 0.1001 | 781.22 | 0.727
318.15 K, x2 = 0.2003 | 793.59 | 0.825
318.15 K, x2 = 0.3001 | 805.08 | 0.951
318.15 K, x2 = 0.4002 | 815.96 | 1.094
318.15 K, x2 = 0.498 | 825.85 | 1.225
318.15 K, x2 = 0.5996 | 835.52 | 1.381
318.15 K, x2 = 0.6996 | 844.5 | 1.542
318.15 K, x2 = 0.7983 | 852.76 | 1.759
318.15 K, x2 = 0.901 | 860.95 | 2.002
